These results are taken from EP4635958A1, “PYRIMIDINE-CONTAINING POLYCYCLIC DERIVATIVE INHIBITOR, AND PREPARATION METHOD THEREFOR AND USE THEREOF” (Shanghai Hansoh Biomedical Co., Ltd., priority 2022, dated 2024).

Usually IC50 stands for the concentration needed to halve the response being measured. What is called Cmax is the peak of the concentration-time curve. As a reminder, the Tmax is the time from dosing to the highest level.

Series [1] has as its system AsPC-1. Briefly: Inhibition of proliferation of KRAS G12D mutant tumor cell line AsPC-1 (CellTiter-Glo). The series is classed as cell-based. The note with it: Homo sapiens, ASPC1, about 72 h. The protocol:
1. Experimental objective: The inhibition activity of the example compounds on the proliferation of 5 KRAS G12D mutant cell lines SNU-1, HPAF-II, Panc0403, AsPC-1 and GP2D was determined. 2. Experimental instruments: • 2.1 Instruments: Microplate reader (BioTek Synergy H1); Pipette (Eppendorf & Rainin). • 2.2 Reagents: HPAF-II, PANC0403, AsPC-1 and GP2D were purchased from COBIOER BIOSCIENCES CO., LTD; SNU-1 was purchased from the cell bank of Chinese Academy of Sciences, Cell Titer-Glo was purchased from Promega, with a catalog number of G7573; RPMI 1640 was purchased from Gibco, with a catalog number of 22400089; DMEM was purchased from Gibco, with a catalog number of 11995065; FBS was purchased from Gibco, with a catalog number of 10091148; PBS was purchased from Gibco, with a catalog number of 10010023; trypsin was purchased from Gibco, with a catalog number of 25200056; cell culture plates were purchased from Corning Company, with a catalog number of 3610. 3. Experimental method: When SNU-1, HPAF-II, Panc0403, AsPC-1 or GP2D cells were cultured to the appropriate confluence, and the SNU-1, HPAF-II, Panc0403, AsPC-1 or GP2D cells were collected. The cells were adjusted to the appropriate cell density using complete culture medium, the cell suspension was plated onto a 96-well plate at 90 µL per well, and the plate was placed in the incubator at 37°C and 5% CO2 for adherent culture overnight. Solutions of the compound with different concentrations were formulated using DMSO and culture medium. A vehicle control was set up. The solutions of the compound were added to the 96-well plate at 10 µL per well, and the plate was placed in the incubator at 37°C and 5% CO2 for further culture for about 72 h. Then, CellTiter-Glo solution was added, and the obtained mixture was shaken and mixed evenly, incubated in the dark for 10 min, and read with a BioTek Synergy H1 microplate reader. 4. Experimental data processing method: The luminescence signal value was used to calculate the inhibition rate. Graphpad Prism software was used to fit the concentration and inhibition rate to a nonlinear regression curve, so as to obtain the IC50 value. 5. Experimental results: Table 2: Determination of the inhibition activity of the compounds on the proliferation of KRAS G12D mutant tumor cell line GP2D
(ATP-based viability assays read luminescence as a measure of living cells.)

Series [2] relates to GP2D. The series can be described thus: Inhibition of proliferation of KRAS G12D mutant tumor cell line GP2D (CellTiter-Glo). To be noted: Homo sapiens, GP2d, 72 h, read-out: GP2D IC50.
Protocol: Experimental method: When SNU-1, HPAF-II, Panc0403, AsPC-1 or GP2D cells were cultured to the appropriate confluence, and the SNU-1, HPAF-II, Panc0403, AsPC-1 or GP2D cells were collected. The cells were adjusted to the appropriate cell density using complete culture medium, the cell suspension was plated onto a 96-well plate at 90 µL per well, and the plate was placed in the incubator at 37°C and 5% CO2 for adherent culture overnight. Solutions of the compound with different concentrations were formulated using DMSO and culture medium. A vehicle control was set up. […] Then, CellTiter-Glo solution was added, and the obtained mixture was shaken and mixed evenly, incubated in the dark for 10 min, and read with a BioTek Synergy H1 microplate reader. […] Experimental data processing method: The luminescence signal value was used to calculate the inhibition rate. Graphpad Prism software was used to fit the concentration and inhibition rate to a nonlinear regression curve, so as to obtain the IC50 value.
A short description of series [3]: Pharmacokinetic determination in mice (IV and PO, plasma, LCMS/MS). The series is classed as in vivo, Balb/c mice. The note with it: for half-life: read-out: T1/2 (converted). From the text: • 1. Study objective: Balb/c mice were used as test animals to study the pharmacokinetic behavior of the compounds in mice (plasma) after oral administration. • 2. Test scheme • 2.1 Test drugs: The example compounds of the present invention, made in house; • 2.2 Test animals: Balb/c mice, male, purchased from Shanghai Jiesijie Experimental Animal Co., Ltd., animal production license number (SCXK (Shanghai) 2013-0006 N0.311620400001794). • 2.3 Drug formulation: Formulation of a drug for oral administration: 10% Captisol in 50 mM citrate buffer pH 5.0.
(§1) Formulation of 50 mM citric acid: 4.8 g of citric acid was weighed into a 1000 ml glass bottle, ultrapure water was added to 300 ml, and the mixture was magnetically stirred until completely dissolved, additional ultrapure water was then added to 500 ml to formulate 50 mM citric acid.
(§2) Formulation of a solution containing 50 mM citric acid (10% Captisol, PH = 5): 50 g of Captisol powder was weighed and added to a 1000 ml glass bottle, 300 ml of 50 mM citric acid was added, and the mixture was magnetically stirred until completely dissolved, then additional citric acid was added to 500 ml, and the PH was adjusted to 5 using 10 M NaOH.
The example compounds were weighed and added to a 4 mL glass bottle separately, 2.4 mL of the solution was added and the mixture was subjected to ultrasound treatment for 10 min to obtain a colorless clear solution with a concentration of 3 mg/mL.
(§3) Formulation of a drug for intravenous administration: 5%DMSO+10%Solutol HS15+85%PBS.
(§4) The example compounds were weighed, and 5% DMSO was added according to the total administration volume; the mixture was vortexed and sonicated for 2 min to ensure complete dissolution; then, 10% Solutol HS15 was added, and the mixture was vortexed and sonicated for 2 min to achieve complete dissolution; finally, 85% PBS was added, and the mixture was vortexed and sonicated for 5 min; the obtained mixture was filtered through a 0.22 um membrane to obtain a colorless, transparent, and clear solution with a concentration of 0.2 mg/mL.
3 Balb/c mice, male; After overnight fasting, the animals were administered orally (PO) at a dose of 30 mg/kg with an administration volume of 10 mL/kg.
3 Balb/C mice, male; After overnight fasting, the animals were administered intravenously (IV) at a dose of 1 mg/kg with an administration volume of 5 mL/kg.
0.04 mL of blood was collected from the orbit before administration and at 0.25 h, 0.5 h, 1 h, 2 h, 4 h, 6 h, 8 h, and 24 h after administration and placed in an EDTA-2K test tube, and the test tube was centrifuged at 6000 rpm for 6 min at 4°C to separate the plasma, which was stored at -20°C; the animals were fed 4 h after administration.
The final determination results obtained by applying the LCMS/MS method are shown in the table below: Table 6: Pharmacokinetic parameters of the compounds administered intravenously in mice

Series [4] can be described thus: Pharmacokinetic determination in rats (IV and PO, plasma, LCMS/MS). The series is classed as in vivo, SD rats. To be noted: male SD rats; for AUC(0-inf): read-out: AUCo-∞; for half-life: read-out: T1/2 (converted); for Cmax: read-out: Cmax; for Tmax: read-out: Tmax. The protocol:
SD rats were used as test animals to study the pharmacokinetic behavior of the example compounds in rats (plasma) after oral administration.
The example compounds of the present invention, made in house.
3 SD rats per group, male. Shanghai Jiesijie Experimental Animal Co., Ltd., animal production license number (SCXK (Shanghai) 2013-0006 N0.311620400001794).
Formulation of a drug for oral administration: 10% Captisol in 50 mM citrate buffer pH 5.0.
as §1, §2
The example compounds were weighed and dissolved in the solution and the mixture was shaken well and subjected to ultrasound treatment for 15 min to obtain a colorless clear solution with a concentration of 3 mg/mL.
as §3, §4
3 SD rats per group, male; After overnight fasting, the animals were administered orally (PO) at a dose of 30 mg/kg with an administration volume of 10 mL/kg.
3 SD rats per group, male; After overnight fasting, the animals were administered intravenously (IV) at a dose of 1 mg/kg with an administration volume of 5 mL/kg.
0.2 mL of blood was collected from the jugular vein before administration and at 0.25 h, 0.5 h, 1.0 h, 2.0 h, 4.0 h, 6.0 h, 8.0 h, and 24.0 h after administration and placed in an EDTA-2K test tube, and the test tube was centrifuged at 6000 rpm for 6 min at 4°C to separate the plasma, which was stored at -20°C. the animals were fed 4 h after administration.
The final determination results obtained by applying the LCMS/MS method are shown in the table below: Table 8: Pharmacokinetic parameters of the compounds administered intravenously in rats

A short description of series [5]: Plasma stability test, rat plasma. The note with it: Rat plasma, 37°C.
Description: The purpose of this experiment was to detect the stability of the example compounds in plasma of mouse, rat, dog and human.
Liquid chromatography-mass spectrometer, centrifuge, vortexer, pipette, continuous dispenser, 96-well plate, 50% methanol aqueous solution, acetonitrile solution containing internal standard, blank matrix (plasma of rat, dog, or human), Propantheline (propantheline bromide), Mevinolin (lovastatin), and test compound.
After whole blood was collected from animals or humans, it was placed in a test tube containing an anticoagulant and centrifuged at 3500 rpm for 10 min to collect the upper pale yellow plasma.
The compound was weighed and the stock solution was formulated with DMSO and the working solution was formulated with 100 mM phosphate buffer.
2.36 mg of propantheline bromide was weighed and diluted with 1 mL of DMSO into a 10 mM stock solution; 10 µL of 10 mM stock solution was pipetted into 1 mL of 100 mM phosphate buffer to achieve a final concentration of 100 µM.
4.05 mg of lovastatin was weighed and diluted with 1 mL of DMSO into a 10 mM stock solution; 10 µL of 10 mM stock solution was pipetted into 1 mL of 100 mM phosphate buffer to achieve a final concentration of 100 µM.
• 1) In a 96-well plate, 285 µL of plasma and 15 µL of 10 µM compound (test compound) were added in sequence and incubated at 37°C. • 2) 40 µL was taken at 0, 15, 30, 60, 90, and 120 min (the sampling point can be fine-tuned) and 160 µL of acetonitrile stop solution containing internal standard was add. • 3) After centrifugation (3500 rpm, 10 min), 50 µL of supernatant was taken, and 50 µL of DDH2O added for dilution and then the obtained mixture was injected into LC-MS/MS.
• Instruments: Shimadzu LC-20 AD • Chromatographic column: Phenomenex Gemiu ® C18 (50*4.6 mm, 5 µm particle size); • mobile phase: A: Acetonitrile, B: 0.1% formic acid solution 0-8 min: 5% A→95% A, 2.0-2.1 min: 90%A→5% A; Flow rate: 0.8 mL/min; Run time: 5.0 min; Injection volume: 5 µL.
• Instrument: API4000 liquid chromatography-mass spectrometer, AB Company, USA; • the ion source was electrospray ionization source (ESI); • drying gas (N2) temperature was 500°C; • electrospray voltage was 5500V; • the detection method was positive ion detection; • the scanning method was selected reaction monitoring (MRM); • the scanning time was 0.1s.
[6] abbreviates: rat, in vivo, IV, 1 mg/kg, overnight fasting, plasma.
[7] abbreviates: rat, in vivo, PO, 30 mg/kg, overnight fasting, plasma.

For the compound `C#Cc1c(F)ccc2cc(O)cc(-c3nc4c5c(nc(OCC6(CN7CCC(=C(F)F)C[C@@H]7C)CC6)nc5c3F)N3C[C@H]5CC[C@H](N5)[C@H]3[C@H](C)O4)c12` [Example 90], the half-inhibitory concentration (IC50) in series [1] was 8.8 nM; in series [2], 0.51 nM.
As for `C#Cc1c(F)ccc2cc(O)cc(-c3nc4c5c(nc(OCC6(CN7CCC(=C(F)F)CC7)CC6)nc5c3F)N3C[C@H]5CC[C@H](N5)[C@H]3[C@H](CC)O4)c12` [Example 124, 4-((5S,5aS,6S,9R)-12-((1-((4-(difluoromethylene)piperidin-1-yl)methyl)cyclopropyl)methoxy)-5-ethyl-1-fluoro-5a,6,7,8,9,10-hexahydro-5H-4-oxa-3,10a,11,13,14-pentaaza-6,9-methylnaphtho[1,8-ab]hept-2-yl)-5-ethynyl-6-fluoronaphthalen-2-ol], the F stood at 23% in series [3] (PO 30 mg/kg vs IV 1 mg/kg, male Balb/c mice) and 18% in series [4] (PO 30 mg/kg vs IV 1 mg/kg). Further, the AUC(0-inf) is 374 ng·h/mL in series [3] (mouse, in vivo, Balb/c mice, intravenously (IV), 1 mg/kg, plasma, read-out: AUCo-∞); 2610 ng·h/mL in series [3] (mouse, in vivo, PO, 30 mg/kg, male Balb/c mice, overnight fasting, plasma, read-out: AUC0-∞); 1110 ng·h/mL in series [4] (setting [6]); 6170 ng·h/mL in series [4] (setting [7]). For the same compound, the C0 in series [3] (mouse, in vivo, Balb/c mice, intravenously (IV), 1 mg/kg, plasma, read-out: C0) was 412 ng/mL; in series [4] (rat, in vivo, IV, 1 mg/kg, overnight fasting, plasma, read-out: C0), 524 ng/mL. The clearance came out at 44.6 mL/min/kg in series [3] (mouse, in vivo, Balb/c mice, intravenously (IV), 1 mg/kg, plasma, read-out: CL) and 15 mL/min/kg in series [4] (rat, in vivo, IV, 1 mg/kg, overnight fasting, plasma, read-out: CL). Moreover, the half-life in series [3] (mouse, in vivo, Balb/c mice, intravenously (IV), 1 mg/kg, plasma) is 11.5 h; in series [3] (mouse, in vivo, PO, 30 mg/kg, male Balb/c mice, overnight fasting, plasma), 6.6 h; in series [4] (setting [6]), 9 h; in series [4] (setting [7]), 6.8 h. Also, the Cmax in series [3] (mouse, in vivo, PO, 30 mg/kg, male Balb/c mice, overnight fasting, plasma, read-out: Cmax) worked out at 391 ng/mL; in series [4] (setting [7]) it was 471 ng/mL. Moreover, the time to peak (Tmax) turned out to be 1 h in series [3] (mouse, in vivo, PO, 30 mg/kg, male Balb/c mice, overnight fasting, plasma, read-out: Tmax) and 6 h in series [4] (setting [7]). Besides, in series [2], the concentration for half-maximal inhibition (IC50) turned out to be 0.98 nM.
For `C#Cc1c(F)ccc2cc(O)cc(-c3nc4c5c(nc(OCC6(CN7CCC(=C(F)F)C7)CC6)nc5c3F)N3C[C@H]5CC[C@H](N5)[C@H]3[C@H](C)O4)c12` [Example 130], the IC50 in series [1] came to 4.2 nM; in series [2], 0.33 nM.
Regarding `C#Cc1c(F)ccc2cc(O)cc(-c3nc4c5c(nc(OCC6(CN7CCCC(=C(F)F)CC7)CC6)nc5c3F)N3C[C@H]5CC[C@H](N5)[C@H]3[C@H](C)O4)c12` [Example 132], in series [4] (setting [7]), the AUC(0-inf) turned out to be 2350 ng·h/mL, the maximum concentration (Cmax) was found to be 246 ng/mL and the Tmax was found to be 2 h. For the same compound, the half-maximal inhibitory concentration (IC50) in series [1] was 4.9 nM. Besides, the IC50 in series [2] was 0.24 nM.
On to `[2H]C([2H])([2H])C1Oc2nc(-c3cc(O)cc4ccc(F)c(C#C)c34)c(F)c3nc(OCC4(CN5CCC(=CF)CC5C)CC4)nc(c23)N2CC3CCC(N3)C12` (centres unmarked) [Example 286], for which, in series [4] (setting [7]), the AUC(0-inf) came out at 600 ng·h/mL, the Cmax is 50 ng/mL, the half-life was 10.8 h and the Tmax turned out to be 2 h. The half-maximal inhibitory concentration (IC50) in series [1] turned out to be 7.8 nM. In addition, in series [2], the concentration for half-maximal inhibition (IC50) worked out at 0.32 nM.
Turning to `[2H]C([2H])(Oc1nc2c3c(nc(-c4cc(O)cc5ccc(F)c(C#C)c45)c(F)c3n1)O[C@@H](C)[C@@H]1[C@@H]3CC[C@H](CN21)N3)C1(C([2H])([2H])N2CCC(=C(F)F)CC2)CC1` [Example 289], in series [4] (setting [7]), the AUC(0-inf) worked out at 2110 ng·h/mL, the Cmax came to 280 ng/mL, the half-life is 6.3 h and the time of peak concentration (Tmax) worked out at 4 h. Also, the IC50 in series [1] was found to be 5.7 nM. For the same compound, the IC50 in series [2] was 0.28 nM.
Turning to `[2H]C([2H])(Oc1nc2c3c(nc(-c4cc(O)cc5ccc(F)c(C#C)c45)c(F)c3n1)O[C@@H](C)[C@@H]1[C@@H]3CC[C@H](CN21)N3)C1(C([2H])([2H])N2CCC(=C(F)F)C[C@H]2C)CC1` [Example 290], the half-inhibitory concentration (IC50) in series [1] came out at 6.2 nM; in series [2], 0.3 nM.
As to `CC[C@H](C)C(=O)O[C@H]1C[C@@H](C)C=C2C=C[C@H](C)[C@H](CC[C@@H]3C[C@@H](O)CC(=O)O3)[C@H]21` [Lovastatin, lovastatin, reference compound], the “Remaining rate (%) 0 min” value in series [5] (0 min) is 100.00%. Also, the “Remaining rate (%) 15 min” value in series [5] (15 min) stood at 21.15%. Further, the “Remaining rate (%) 30 min” value in series [5] (30 min) turned out to be 1.77%. The “Remaining rate (%) 60 min” value in series [5] (60 min) is given as 0.36%. Further, in series [5] (120 min), the “Remaining rate (%) 120 min” value stood at 0.30%.
